Laboratory results reported in PubChem BioAssay (NCI).
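The compound was tested at five concentrations on cells cultured in 96-well plates, with a 48-hour exposure period. GI50: concentration for 50% inhibition of growth. TGI marks complete inhibition of growth.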

How the values were obtained:
Assay in all cases: inhibition of tumour cell growth, NCI panel, 48 h
TK-10 renal = system: TK-10 renal
SK-MEL-2 melanoma = system: SK-MEL-2 melanoma
HCT-15 colon = system: HCT-15 colon
NCI-H23 lung = system: NCI-H23 lung
IGROV1 ovarian = system: IGROV1 ovarian
OVCAR-3 ovarian = system: OVCAR-3 ovarian
SNB-75 CNS = system: SNB-75 CNS
T-47D breast = system: T-47D breast
HS 578T breast = system: HS 578T breast
MCF7 breast = system: MCF7 breast

Compound	GI50 (TK-10 renal) [µM]	TGI (TK-10 renal) [µM]	GI50 (SK-MEL-2 melanoma) [µM]	TGI (SK-MEL-2 melanoma) [µM]	GI50 (HCT-15 colon) [µM]	TGI (HCT-15 colon) [µM]	GI50 (NCI-H23 lung) [µM]	TGI (NCI-H23 lung) [µM]	GI50 (IGROV1 ovarian) [µM]	TGI (IGROV1 ovarian) [µM]	GI50 (OVCAR-3 ovarian) [µM]	TGI (OVCAR-3 ovarian) [µM]	GI50 (SNB-75 CNS) [µM]	TGI (SNB-75 CNS) [µM]	GI50 (T-47D breast) [µM]	TGI (T-47D breast) [µM]	GI50 (HS 578T breast) [µM]	TGI (HS 578T breast) [µM]	TGI (MCF7 breast) [µM]	GI50 (MCF7 breast) [µM]
CCC[CH2][Sn]([CH2]CCC)([O]C(=O)c1nccnc1N)[O]C(=O)c1nccnc1N	0.742	2.02	0.424	1.62	1.15	2.37	0.573	1.91	1.33	2.68	1.21	2.45	0.87	2.12						
O=C(Nc1ccccc1Br)c1cccc([N+](=O)[O-])c1O		12.6		52.7		25.4		6.31		> 59.7		7.51		53.1						
Cc1cc(C)cc(Sc2c([N+](=O)[O-])ncn2C)c1		72.4		25.8				33.3		55.1		34.3		62.5						
CC(=O)OCC1OC(OC2=C(CC=C(Cl)Cl)C(=O)c3ccccc3C2=O)C(OC(C)=O)C(OC(C)=O)C1OC(C)=O (centres undefined)	9.61	21.5	3.33	9.25	3.64	21.3	13.2	36.8	0.869	3.11	2.27	4.88	2.68	19.9	1.99	5.41	3.98	32.2		
COC(=O)[C@@]1(C)CC[C@]2(C)CC[C@]3(C)C4=CC=C5C(=CC(=O)C(O)=C5C)[C@]4(C)CC[C@@]3(C)[C@@H]2C1	0.185	0.449	0.24	0.555	0.171	0.421	0.235	0.637	0.198	0.46	0.169	0.325	0.313	0.854			0.289	1.52		
CCc1c(Cl)nc(Cl)nc1Cl		4.77				0.601		2.06		4.44		0.374		4.21		1.7			0.258	
COc1cc([C@@H]2c3cc4c(cc3[C@@H](O[C@@H]3O[C@@H]5CO[C@@H](c6cccs6)O[C@H]5[C@H](O)[C@H]3O)[C@H]3COC(=O)[C@H]23)OCO4)cc(OC)c1O			1.33	4.84		> 55.9	0.179	2.6		36.7	1.42	5.45	0.104	1.56	0.207	12.3	2.03	15.3	> 100	0.0491
CC(C)(C)[Si](C)(C)O/N=C\c1ccc(O[Si](C)(C)C(C)(C)C)cc1		> 100		> 100		> 100		> 100		> 100		50.9		> 100						
O=C1C(Cl)=C(Nc2cccc(O)c2)C(=O)N1c1ccc(Cl)c(Cl)c1	25.7	63.8	54.8	> 100	19.9	45.5	15.4	31.3	28.4	> 100	17.9	36.4			41	> 100	20.5	54.3	85.1	25.1
CC(C)c1cccc(C(C)C)c1NC(=O)C(=O)C(C(=O)c1ccc2ccccc2c1)C1OC(=O)c2ccccc21 (centres undefined)				> 100		> 100		> 100		> 100		> 100								
CC1=C([Se]CC(OC(=O)[C@@H](CO)NC(=O)OC(C)(C)C)C(=O)NC(C)(C)C)C(=O)c2ccccc2C1=O (some centres undefined)	1.98	3.44	2.2	4.57	1.99	3.97	1.49	3.2	1.66	3.27	1.8	3.19	1.3	2.6	0.332	1.06			3.97	1.75
N#Cc1cccc(NC(=O)c2oc3ccccc3c2-c2cnn(-c3ccccc3)c2)c1	317	> 500	> 500	> 500	> 500	> 500	> 500	> 500	120	> 500	> 500	> 500	82	493			171	> 500	> 500	209
C=C1C(=O)O[C@@H]2C[C@@H]1CC[C@@]1(C)O[C@@H]1CC[C@@]1(C)O[C@@H]1CC[C@@]2(C)O	23.4	67.6	23	75.2	24	70.1	1.58	3.14	21.2	> 100	15.7	37.3			2.09	17	21.6	61.2	> 100	55.2
CN(C)CCN=Cc1c2ccccc2c(=O)n2c1oc1ccccc12	3.44	14	16.6	48.2	5.37	22.1	10.5	23	10.6	27.6	11.7	24	7.55	22.2						
C/C(=N/NC(=O)C(N)=O)C(CC(C(=O)Nc1ccccc1C)/C(C)=N\NC(=O)C(N)=O)C(=O)Nc1ccccc1C (centres undefined)		> 100		> 100				> 100		> 100		> 100		> 100						
CCOc1ccc(N=Nc2ccc3oc(=O)c(C(=O)Nc4ccc(OC)cc4)cc3c2)cc1		> 100		54.4		> 100		56.9		> 100		67		93.7						
C/C(=C\CCc1ccoc1)CC/C=C(\C)CCCN1CCC(CO)CC1	2.41	6.54			3.07	12	3.78	14.7	5.33	19	3.78	13.7	2.1	7.79	2.51	8.92	2.6	8.08	11.6	3.24
